{"source": "patent US9687432B2", "about": "“Antimicrobial bispyridine amine compositions and uses” (LONZA INC., priority 2012, dated 2017)", "key": {"[1]": {"assay": "Foam height test", "format": "physicochemical", "settings": "for foam height, 30 sec / foam height, 1 min / foam height, 2 min / foam height, Initial Reading: 0.5 grams in 49.5 ml DI water; for foam height, 30 sec / foam height, 1 min / foam height, 2 min: 100 ml graduated cylinder; for foam height, Initial Reading: read in 100 ml graduated cylinder with 1 ml line increments; for Type of Foam: 0.5 grams of active in 49.5 ml DI water, blended 1 minute", "experimental": "The testing was performed on samples containing octenidine dihydrochloride, octenidine distearate, PHMB HCl and the chloride salts benzalkonium chloride, benzethonium chloride, and cetylpyridinium chloride.\nA 250 ml beaker was filed with 49.5 ml of deionized (DI) water for each sample. Then, 0.5 grams of the active was added to the beaker. Each solution was blended with a Bamix® wand homogenizer/mixer for 1 minute. The solution was then poured into a 100 ml graduated cylinder with 1 ml line increments. The height of the foam was documented at an initial, 30 second, 1 minute, and 2 minute time point."}, "[2]": {"system": "Corynebacterium minutissimum (23348)", "assay": "MIC test against skin microorganisms", "format": "cell-based", "settings": "48 hrs at 36° C., TSB first set, BHI second set", "experimental": "(§1) MICs for the organisms were determined using a standard 96-well microtiter plate assay in Trypic Soy Broth (TSB). […] Bacteria were grown in Tryptic Soy Broth or Brain Heart Infusion (E. hirae) for 24 hrs and were adjusted to one million cells per milliliter in same type of broth. Following incubation (48 hrs at 36° C.), the lowest concentration of test compound inhibiting growth was recorded as the Minimum Inhibitory Concentration (MIC). The actives were serially diluted and tested at final concentrations ranging from 156.3-0.61 ppm. MIC was run for two different sets.\n(§2) Bacteria were grown overnight in Tryptic Soy Brother (TSB) or Brain Heart Infusion (BHI) and were adjusted to approximately 1×10^6 colony forming units per ml (cfu/ml) and used to inoculate the wells. Final bacterial concentration in the test wells was 5×10^5 cfu/ml. For Corynebacterium spp, TSB was used for the first set and BHI for the second set. Inoculated microtiter plates were incubated at 36° C. for 48 hours.\n(§3) The lowest concentration of test compound inhibiting growth was recorded as the minimum inhibitory concentration."}, "[3]": {"system": "Staphylococcus haemolyticus (29970)", "assay": "MIC test against skin microorganisms", "format": "cell-based", "settings": "48 hrs at 36° C., two different sets", "experimental": "as §1, §2, §3"}, "[4]": {"system": "Corynebacterium xerosis (373)", "assay": "MIC test against skin microorganisms", "format": "cell-based", "settings": "48 hrs at 36° C., TSB first set, BHI second set", "experimental": "as §1, §2, §3"}, "[5]": {"system": "Bacillus licheniformis (14580)", "assay": "MIC test against skin microorganisms", "format": "cell-based", "settings": "48 hrs at 36° C., two different sets", "experimental": "as §1, §2, §3"}, "[6]": {"system": "Paecilomyces sp.", "assay": "Minimum Inhibitory Concentration (MIC) test, 96-well microtiter plate", "format": "cell-based", "settings": "48 hrs at 36° C., Sabouraud Dextrose Broth", "experimental": "(§4) MICs for the organisms were determined using a standard 96-well microtiter plate assay in Tryptic Soy Broth (TSB) or Sabouraud Dextrose Broth (SDB). A stock solution (2500 ppm) of Octenidine distearate was prepared in methanol and stock solutions (2500 ppm) of Octenidine dihydrochloride and PHMB were prepared in absolute ethanol. […] Fungal inocula were grown up on Sabouraud Dextrose Agar plates (yeast) or Potato Dextrose Agar plates (mold) and mold spores and yeast cells were adjusted to approximately 100,000 per milliliter in Sabouraud Dextrose Broth (pH 5.6). Bacterial and fungal cultures were used to inoculate the serially diluted antimicrobials in the 96 well microplate and the plate was then incubated for 48 hrs at 36° C. The lowest concentration of test compound inhibiting growth at 48 hrs. (as determined by visual inspection) was recorded as the Minimum Inhibitory Concentration (MIC)"}, "[7]": {"system": "Enterococcus hirae (8043)", "assay": "Minimum Inhibitory Concentration (MIC) test, 96-well microtiter plate", "format": "cell-based", "settings": "48 hrs at 36° C., visual inspection", "experimental": "as §4"}, "[8]": {"system": "Aureobasidium pullulans (9348)", "assay": "Minimum Inhibitory Concentration (MIC) test, 96-well microtiter plate", "format": "cell-based", "settings": "48 hrs at 36° C., Sabouraud Dextrose Broth", "experimental": "as §4"}, "[9]": {"system": "Klebsiella pneumoniae (4352)", "assay": "Minimum Inhibitory Concentration (MIC) test, 96-well microtiter plate", "format": "cell-based", "settings": "48 hrs at 36° C., visual inspection", "experimental": "as §4"}, "[10]": {"system": "Escherichia coli (10536)", "assay": "Minimum Inhibitory Concentration (MIC) test, 96-well microtiter plate", "format": "cell-based", "settings": "48 hrs at 36° C., visual inspection", "experimental": "as §4"}, "[11]": {"system": "LB penicillium sp.", "assay": "Minimum Inhibitory Concentration (MIC) test, 96-well microtiter plate", "format": "cell-based", "settings": "48 hrs at 36° C., Sabouraud Dextrose Broth", "experimental": "as §4"}, "[12]": {"system": "Staphylococcus aureus (6538)", "assay": "Minimum Inhibitory Concentration (MIC) test, 96-well microtiter plate", "format": "cell-based", "settings": "48 hrs at 36° C., visual inspection", "experimental": "as §4"}, "[13]": {"system": "Aspergillus niger (16404)", "assay": "Minimum Inhibitory Concentration (MIC) test, 96-well microtiter plate", "format": "cell-based", "settings": "48 hrs at 36° C., Sabouraud Dextrose Broth", "experimental": "as §4"}, "[14]": {"system": "Bacillus subtilus (6633)", "assay": "Minimum Inhibitory Concentration (MIC) test, 96-well microtiter plate", "format": "cell-based", "settings": "48 hrs at 36° C., visual inspection", "experimental": "as §4"}, "[15]": {"system": "Pseudomonas aeruginosa (9027)", "assay": "Minimum Inhibitory Concentration (MIC) test, 96-well microtiter plate", "format": "cell-based", "settings": "48 hrs at 36° C., visual inspection", "experimental": "as §4"}, "[16]": {"system": "Penicillium pinophilium (11797)", "assay": "Minimum Inhibitory Concentration (MIC) test, 96-well microtiter plate", "format": "cell-based", "settings": "48 hrs at 36° C., Sabouraud Dextrose Broth", "experimental": "as §4"}, "[17]": {"system": "Gliocladium virens (9645)", "assay": "Minimum Inhibitory Concentration (MIC) test, 96-well microtiter plate", "format": "cell-based", "settings": "48 hrs at 36° C., Sabouraud Dextrose Broth", "experimental": "as §4"}, "[18]": {"system": "Pseudomonas aeruginosa (15442)", "assay": "Minimum Inhibitory Concentration (MIC) test, 96-well microtiter plate", "format": "cell-based", "settings": "48 hrs at 36° C., visual inspection", "experimental": "as §4"}, "[19]": {"system": "Enterobacter gergoviae (33028)", "assay": "Minimum Inhibitory Concentration (MIC) test, 96-well microtiter plate", "format": "cell-based", "settings": "48 hrs at 36° C., visual inspection", "experimental": "as §4"}, "[20]": {"system": "Candida albicans (10231)", "assay": "Minimum Inhibitory Concentration (MIC) test, 96-well microtiter plate", "format": "cell-based", "settings": "48 hrs at 36° C., Sabouraud Dextrose Broth", "experimental": "as §4"}}}
{"molecule": "CC(C)(C)CC(C)(C)c1ccc(OCCOCC[N+](C)(C)Cc2ccccc2)cc1", "note": "[Benzethonium Chloride, benzethonium chloride]", "values": [{"measurement": "foam height, 30 sec", "setting": "[1]", "result": 107}, {"measurement": "foam height, 1 min", "setting": "[1]", "result": 107}, {"measurement": "foam height, 2 min", "setting": "[1]", "result": 106}, {"measurement": "foam height, Initial Reading", "setting": "[1]", "result": 107}, {"measurement": "Type of Foam", "setting": "[1]", "result": "Tight"}]}
{"molecule": "Polyhexamethylene biguanide stearate [PHMBS]", "values": [{"measurement": "MIC (ppm)", "setting": "[2]", "result": "0.61-4.88 ppm"}, {"measurement": "MIC (ppm)", "setting": "[3]", "result": "2.44-4.88 ppm"}, {"measurement": "MIC (ppm)", "setting": "[4]", "result": 9.76, "unit": "ppm"}, {"measurement": "MIC (ppm)", "setting": "[5]", "result": "2.44-4.88 ppm"}]}
{"molecule": "benzalkonium chloride", "values": [{"measurement": "foam height, 30 sec", "setting": "[1]", "result": 103}, {"measurement": "foam height, 1 min", "setting": "[1]", "result": 102}, {"measurement": "foam height, 2 min", "setting": "[1]", "result": 102}, {"measurement": "foam height, Initial Reading", "setting": "[1]", "result": 103}, {"measurement": "Type of Foam", "setting": "[1]", "result": "Tight"}]}
{"molecule": "polyhexamethylene biguanide hydrochloride [PHMB]", "values": [{"measurement": "Minimum Inhibitory Concentration (MIC)", "setting": "[6]", "result": "1250-5000 ppm"}, {"measurement": "Minimum Inhibitory Concentration (MIC)", "setting": "[7]", "result": 2.44, "unit": "ppm"}, {"measurement": "Minimum Inhibitory Concentration (MIC)", "setting": "[8]", "result": 1.22, "unit": "ppm"}, {"measurement": "Minimum Inhibitory Concentration (MIC)", "setting": "[9]", "result": "1.22-2.44 ppm ^"}, {"measurement": "Minimum Inhibitory Concentration (MIC)", "setting": "[10]", "result": 1.22, "unit": "ppm"}, {"measurement": "Minimum Inhibitory Concentration (MIC)", "setting": "[11]", "result": 1.22, "unit": "ppm"}, {"measurement": "Minimum Inhibitory Concentration (MIC)", "setting": "[12]", "result": "1.22-2.44 ppm ^"}, {"measurement": "Minimum Inhibitory Concentration (MIC)", "setting": "[13]", "result": 2.44, "unit": "ppm"}, {"measurement": "Minimum Inhibitory Concentration (MIC)", "setting": "[14]", "result": "0.31-0.61 ppm ^"}, {"measurement": "Minimum Inhibitory Concentration (MIC)", "setting": "[15]", "result": 2.44, "unit": "ppm"}, {"measurement": "Minimum Inhibitory Concentration (MIC)", "setting": "[16]", "result": 2.44, "unit": "ppm"}, {"measurement": "Minimum Inhibitory Concentration (MIC)", "setting": "[17]", "result": 0.61, "unit": "ppm"}, {"measurement": "Minimum Inhibitory Concentration (MIC)", "setting": "[18]", "result": 4.88, "unit": "ppm"}, {"measurement": "Minimum Inhibitory Concentration (MIC)", "setting": "[19]", "result": "1.22-2.44 ppm ^"}, {"measurement": "Minimum Inhibitory Concentration (MIC)", "setting": "[20]", "result": 0.61, "unit": "ppm"}, {"measurement": "foam height, 30 sec", "setting": "[1]", "result": 85}, {"measurement": "foam height, 1 min", "setting": "[1]", "result": 80}, {"measurement": "foam height, 2 min", "setting": "[1]", "result": 75}, {"measurement": "foam height, Initial Reading", "setting": "[1]", "result": 87}, {"measurement": "Type of Foam", "setting": "[1]", "result": "Slightly loose"}]}
